Reference: ChEMBL document CHEMBL4396891, “Recent update on anti-dengue drug discovery” (Eur J Med Chem, 2019)
One block for each compound: values may come before it.

How the values were obtained:
dengue virus type 2 [1] = test: Antiviral activity against DENV2 infected in BHK-21 assessed as reduction in viral plaque formation by crystal violet staining based assay; format: functional, organism-based
Nonstructural protein 5 = Nonstructural protein 5 (Dengue virus, UniProt V5TFZ2); test: Inhibition of recombinant N-terminal His6-tagged DENV2 NGC NS5 RNA dependent RNA polymerase; design: species or system dengue virus type 2
Sequence of Nonstructural protein 5 (V5TFZ2 whole entry): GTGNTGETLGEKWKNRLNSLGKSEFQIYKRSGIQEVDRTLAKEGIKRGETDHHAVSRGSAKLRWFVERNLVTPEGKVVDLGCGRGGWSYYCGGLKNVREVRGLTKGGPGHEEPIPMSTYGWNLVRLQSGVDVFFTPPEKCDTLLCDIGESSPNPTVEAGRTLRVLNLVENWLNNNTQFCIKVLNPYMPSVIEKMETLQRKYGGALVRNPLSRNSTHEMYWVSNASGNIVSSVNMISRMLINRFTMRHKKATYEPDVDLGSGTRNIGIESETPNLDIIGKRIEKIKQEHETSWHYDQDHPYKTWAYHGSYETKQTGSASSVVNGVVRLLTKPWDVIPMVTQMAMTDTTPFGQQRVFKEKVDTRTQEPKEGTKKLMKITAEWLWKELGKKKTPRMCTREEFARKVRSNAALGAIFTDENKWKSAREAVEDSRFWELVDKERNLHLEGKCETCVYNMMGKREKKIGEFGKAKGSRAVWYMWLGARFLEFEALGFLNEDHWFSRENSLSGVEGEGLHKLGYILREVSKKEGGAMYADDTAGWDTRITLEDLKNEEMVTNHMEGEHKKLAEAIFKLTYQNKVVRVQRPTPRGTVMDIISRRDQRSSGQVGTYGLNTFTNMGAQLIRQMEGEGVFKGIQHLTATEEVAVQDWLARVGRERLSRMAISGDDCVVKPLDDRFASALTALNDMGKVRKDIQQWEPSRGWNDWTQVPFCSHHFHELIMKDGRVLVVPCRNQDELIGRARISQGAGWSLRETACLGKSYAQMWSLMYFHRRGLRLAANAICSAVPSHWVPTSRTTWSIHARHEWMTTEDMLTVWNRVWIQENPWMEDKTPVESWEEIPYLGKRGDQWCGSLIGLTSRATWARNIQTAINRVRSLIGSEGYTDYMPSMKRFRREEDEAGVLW

dengue virus type 1 = test: Antiviral activity against DENV1 infected in BHK cells assessed as reduction in viral replication; format: functional, organism-based
dengue virus type 2 [2] = test: Antiviral activity against DENV2 infected in BHK cells assessed as reduction in viral replication; format: functional, organism-based
dengue virus type 3 = test: Antiviral activity against DENV3 infected in BHK cells assessed as reduction in viral replication; format: functional, organism-based
dengue virus type 4 = test: Antiviral activity against DENV4 infected in BHK cells assessed as reduction in viral replication; format: functional, organism-based
A549 = test: Cytotoxicity against human A549 cells assessed as cell survival at 200 uM after 24 hrs by MTT assay relative to control; format: functional; conditions: A549, 24 h, read-out: Activity
dengue virus type 2 [3] = test: Antiviral activity against DENV2 infected in human Huh7 cells up to 72 hrs by immunofluorescence analysis; format: functional, organism-based; conditions: Huh-7, 72 h
dengue virus type 2 [4] = test: Antiviral activity against DENV2 New Guinea C/PUO-218 by qRT-PCR analysis; format: functional, organism-based
dengue virus type 2 [5] = test: Antiviral activity against DENV2 infected in human Huh7 cells assessed as reduction in virus yield by qRT-PCR analysis; format: functional, organism-based; conditions: Huh-7
dengue virus type 2 [6] = test: Antiviral activity against DENV2 infected in BHK-21 incubated for 2 hrs followed by compound washout and subsequent replating by plaque-forming assay; format: functional, organism-based; conditions: BHK-21, 2 h
dengue virus type 2 [7] = test: Antiviral activity against DENV2 infected in African green monkey Vero cells assessed as reduction in virus titer after 72 hrs by naphthol blue-black dye based assay; format: functional, organism-based

IC50 (dengue virus type 2 [1]): 10 µM
SMILES: O=C(Nc1ccc([N+](=O)[O-])cc1Cl)c1cc(Cl)ccc1O [NICLOSAMIDE]

IC50 (Nonstructural protein 5): 5 to 6.7 µM
EC50 (dengue virus type 1): 2.2 to 2.8 µM
EC50 (dengue virus type 2 [2]): 2.2 to 2.8 µM
EC50 (dengue virus type 3): 2.2 to 2.8 µM
IC50 (dengue virus type 4): 2.2 to 2.8 µM
SMILES: O=C(NO)c1ncc(CS(=O)(=O)c2ccccc2)c(CO)c1O

SMILES: CC1(C)[C@@H](OC(=O)CCC(=O)O)CC[C@]2(C)[C@H]3C(=O)C=C4[C@@H]5C[C@@](C)(C(=O)O)CC[C@]5(C)CC[C@@]4(C)[C@]3(C)CC[C@@H]12 [CARBENOXOLONE]
viability at 200 µM (A549): 80%

SMILES: CC(=O)O[C@H]1C[C@H](O[C@H]2[C@@H](O)C[C@H](O[C@H]3[C@@H](O)C[C@H](O[C@H]4CC[C@@]5(C)[C@H](CC[C@@H]6[C@@H]5C[C@@H](O)[C@]5(C)[C@@H](C7=CC(=O)OC7)CC[C@]65O)C4)O[C@@H]3C)O[C@@H]2C)O[C@H](C)[C@H]1O[C@@H]1O[C@H](CO)[C@@H](O)[C@H](O)[C@H]1O [LANATOSIDE C]
IC50 (dengue virus type 2 [3]): 0.19 µM

SMILES: CC(C)OC(=O)[C@H](C)N[P@](=O)(OC[C@H]1O[C@@H](n2ccc(=O)[nH]c2=O)[C@](C)(F)[C@@H]1O)Oc1ccccc1 [SOFOSBUVIR]
EC50 (dengue virus type 2 [4]): 0.4 µM
EC50 (dengue virus type 2 [5]): 4.9 µM

IC50 (dengue virus type 2 [6]): 10.1 µM
SMILES: CCN(CCO)CCCC(C)Nc1ccnc2cc(Cl)ccc12 (configuration not stated) [HYDROXYCHLOROQUINE]

SMILES: C[C@H]1c2cccc(O)c2C(=O)C2=C(O)[C@]3(O)C(=O)C(C(N)=O)=C(O)[C@@H](N(C)C)[C@@H]3[C@@H](O)[C@@H]21 [DOXYCYCLINE]
IC50 (dengue virus type 2 [7]): 50 µM
